# Source: patent US10544186B2, “Process for the synthesis of amide bonds with the aid of novel catalysts” (Merck Patent GmbH, priority 2016, dated 2020)
# Structures can show the parent of a compound that is named as a salt. Where two headings read alike, the source gives them in different places.
# How the values were obtained:
# [1] = Solubility of the amide linking reagents in organic solvents; type: physicochemical; settings: for solubility: organic solvent or mixture, thermodynamic from solid
# Description: All solubility determinations are carried out in a tared gas-tight 4 ml bottle with magnetic stirrer bar. The amide linking reagent (at least 5 mg) is weighed out and a certain amount of the solvent to be investigated is added. The mixture is stirred for 2-5 minutes. If undissolved solid is still present, solvent (50-100 μl) is additionally added, and the mixture is stirred again. As soon as a clear solution is present, the experiment is terminated.
# [2] = solvent 9CH2Cl2:1CH3CN, read-out: solubility in 9CH2Cl2:1CH3CN
# [3] = solvent CH2Cl2, read-out: solubility in CH2Cl2
# [4] = solvent CH3CN, read-out: solubility in CH3CN
# [5] = solvent DMF, read-out: solubility in DMF
# [6] = solvent Hexane, read-out: solubility in Hexane
# [7] = solvent THF, read-out: solubility in THF
# [8] = solvent Toluene, read-out: solubility in Toluene
Molecule,solubility in 9CH2Cl2:1CH3CN ([1]; solvent 9CH2Cl2:1CH3CN),solubility in CH2Cl2 ([1]; solvent CH2Cl2),solubility in CH3CN ([1]; solvent CH3CN),solubility in DMF ([1]; solvent DMF),solubility in Hexane ([1]; solvent Hexane),solubility in THF ([1]; solvent THF),solubility in Toluene ([1]; solvent Toluene),solubility in the nonpolar solvents hexane and toluene compared with the BF4/PF6 analogue ([1]; hexane and toluene),"solubility [1, 2]","solubility [1, 3]","solubility [1, 4]","solubility [1, 5]","solubility [1, 6]","solubility [1, 7]","solubility [1, 8]",melting point
"CN(C)C(Sc1cccc[n+]1[O-])=[N+](C)C.F[P-](F)(F)(F)(F)F [HOTT, S-(1-oxido-2-pyridyl)-N,N,N′,N′-tetramethylthiouronium hexafluorophosphate, reference compound]",,,,,,,,,180 mg/mL,59 mg/mL,810 mg/mL,690 mg/mL,< 1.2 mg/mL,< 1.2 mg/mL,< 1.2 mg/mL,
"CN(C)C(n1n[n+]([O-])c2ccccc21)=[N+](C)C.F[P-](F)(F)(F)(F)F [HBTU, 1-(dimethylamino(dimethylamonium-1-ylidene)methyl)-1H-benzo[d][1,2,3]triazole 3-oxide hexafluorophosphate, reference compound]",<2.8 mg/mL,<1.1 mg/mL,124 mg/mL,200 mg/mL,<1.2 mg/mL,<3.6 mg/mL,<1.2 mg/mL,,,,,,,,,
"CN(C)[P+](On1nnc2ccccc21)(N(C)C)N(C)C.F[P-](F)(F)(F)(F)F [BOP, (benzotriazol-1-yloxy)tris(dimethylamino)phosphonium hexafluorophosphate, reference compound]",,,,,,,,,> 335 mg/mL,> 380 mg/mL,510 mg/mL,660 mg/mL,< 1.2 mg/mL,< 4.2 mg/mL,< 1.2 mg/mL,
"CN(C)C(On1nnc2ccccc2c1=O)=[N+](C)C.F[B-](F)(F)F [HDBTU, O-(3,4-dihydro-4-oxo-1,2,3-benzotriazin-3-yl)-N,N,N′,N′-tetramethyluronium tetrafluoroborate, reference compound]",,,,,,,,,17 mg/mL,3.75 mg/mL,240 mg/mL,250 mg/mL,< 1.2 mg/mL,< 3.3 mg/mL,< 1.2 mg/mL,
"CCOC(=O)C(C#N)=NO[C+](N(C)C)N1CCOCC1.F[P-](F)(F)(F)(F)F [COMU, (1-cyano-2-ethoxy-2-oxoethylideneaminooxy)dimethylaminomorpholinocarbenium hexafluorophosphate, reference compound]",,,,,,,,,294 mg/mL,82 mg/mL,565 mg/mL,530 mg/mL,< 1.2 mg/mL,4.1 mg/mL,3.2 mg/mL,
"[O-][n+]1nn(C(N2CCCC2)=[N+]2CCCC2)c2ccccc21 [BPyU-FAP, 1-(Pyrrolidino(pyrrolidinium-1-ylidene)methyl)-1H-benzo[d]-1,2,3-triazole 3-oxide tris(pentafluoroethyl)trifluorophosphate]",,,,,,,,,190 mg/mL,57 mg/mL,> 1020 mg/mL,> 1100 mg/mL,< 1.2 mg/mL,510 mg/mL,< 1.2 mg/mL,
(Benzotriazol-1-yloxy)tris(pyrrolidino)phosphonium tris(pentafluoroethyl)trifluorophosphate [PyBOP-FAP],>1500 mg/mL,>1650 mg/mL,>1550 mg/mL,>1550 mg/mL,<1.2 mg/mL,>1500 mg/mL,5.0 mg/mL,,,,,,,,,
"CN(C)C(Oc1c(F)c(F)c(F)c(F)c1F)=[N+](C)C.F[P-](F)(F)(F)(F)F [PfTU, O-pentafluorophenyl-N,N,N′,N′-tetramethyluronium hexafluorophosphate, reference compound]",2.5 mg/mL,<1.2 mg/mL,1000 mg/mL,1000 mg/mL,<1.2 mg/mL,<1.2 mg/mL,<1.2 mg/mL,,,,,,,,,
"[O-][n+]1nn(C(N2CCCC2)=[N+]2CCCC2)c2ccccc21 (as salt: phosphate) [BPyU-FAP, 1-(Pyrrolidino(pyrrolidinium-1-ylidene)methyl)-1H-benzo[d]-1,2,3-triazole 3-oxide tris(pentafluoroethyl)trifluorophosphate]",,,,,,,,,,,,,,,,173 °C (dec.)
"1-(Dimethylamino(dimethylammonium-1-yliden)methyl)-1H-azabenzo-[d][1,2,3]triazole 3-oxide tris(pentafluoroethyl)trifluorophosphate [ATU-FAP]",67 mg/mL,<1.2 mg/mL,>2000 mg/mL,>2000 mg/mL,<1.2 mg/mL,670 mg/mL,<1.2 mg/mL,,,,,,,,,
"F[P-](F)(F)(F)(F)F.[O-][n+]1nn(C(N2CCCC2)=[N+]2CCCC2)c2ccccc21 [HBPyU, 1-(pyrrolidino(pyrrolidinium-1-ylidene)methyl)-1H-benzo-[d][1,2,3]triazole 3-oxide hexafluorophosphate, reference compound]",,,,,,,,,118 mg/mL,68.3 mg/mL,510 mg/mL,540 mg/mL,< 1.2 mg/mL,< 3.3 mg/mL,< 1.2 mg/mL,
"F[P-](F)(F)(F)(F)F.c1cnc2c(c1)nnn2O[P+](N1CCCC1)(N1CCCC1)N1CCCC1 [PyAOP, (7-azabenzotriazol-1-yloxy)tris(pyrrolidino)phosphonium hexafluorophosphate, reference compound]",,,,,,,,,670 mg/mL,1000 mg/mL,1000 mg/mL,670 mg/mL,< 1.2 mg/mL,6 mg/mL,< 1.2 mg/mL,

# Second part, led by results:
solubility in 9CH2Cl2:1CH3CN ([1]; solvent 9CH2Cl2:1CH3CN),solubility in CH2Cl2 ([1]; solvent CH2Cl2),solubility in CH3CN ([1]; solvent CH3CN),solubility in DMF ([1]; solvent DMF),solubility in Hexane ([1]; solvent Hexane),solubility in THF ([1]; solvent THF),solubility in Toluene ([1]; solvent Toluene),solubility in the nonpolar solvents hexane and toluene compared with the BF4/PF6 analogue ([1]; hexane and toluene),Molecule,"solubility [1, 2]","solubility [1, 3]","solubility [1, 4]","solubility [1, 5]","solubility [1, 6]","solubility [1, 7]","solubility [1, 8]",melting point
480 mg/mL,>780 mg/mL,>860 mg/mL,>1125 mg/mL,<1.2 mg/mL,>780 mg/mL,<1.2 mg/mL,,"O-(3,4-Dihydro-4-oxo-1,2,3-benzotriazin-3-yl)-N,N,N,N′-tetramethyluronium tris(pentafluoroethyl)trifluorophosphate [DBTU-FAP]",,,,,,,,
2.9 mg/mL,<1.2 mg/mL,265 mg/mL,220 mg/mL,<1.2 mg/mL,<1.2 mg/mL,<1.2 mg/mL,,"CN(C)C(ON1C(=O)CCC1=O)=[N+](C)C.F[B-](F)(F)F [TSTU, O—(N-succinimidyl)-N,N,N′,N′-tetramethyluronium tetrafluoroborate, reference compound]",,,,,,,,
>2000 mg/mL,690 mg/mL,>2000 mg/mL,>2000 mg/mL,<1.2 mg/mL,1400 mg/mL,<1.2 mg/mL,,"S-(1-Oxido-2-pyridyl)-N,N,N′,N′-tetramethylthiouronium tris(pentafluoroethyl)trifluorophosphate [OTT-FAP]",,,,,,,,
120 mg/mL,6.9 mg/mL,>1040 mg/mL,>1200 mg/mL,<1.2 mg/mL,364 mg/mL,<1.2 mg/mL,,"1-(Dimethylamino(dimethylammonium-1-ylidene)methyl)-1H-benzo[d]-1,2,3-triazole 3-oxide tris(pentafluoroethyl)trifluorophosphate [BTU-FAP]",,,,,,,,
>2000 mg/mL,>2000 mg/mL,>2000 mg/mL,>2000 mg/mL,<1.2 mg/mL,>2000 mg/mL,,,(7-Azabenzotriazol-1-yloxy)tris(pyrrolidino)phosphonium tris(pentafluoroethyl)trifluorophosphate [PyAOP-FAP],,,,,,,,
,,,,,,,solubility improvement,"CCOC(=O)/C(C#N)=N/OC(N1CCOCC1)=[N+](C)C [COMU-FAP, (1-Cyano-2-ethoxy-2-oxoethylideneaminooxy)dimethylaminomorpholinocarbenium tris(pentafluoroethyl)trifluorophosphate]",> 2000 mg/mL,180 mg/mL,905 mg/mL,> 1500 mg/mL,2.1 mg/mL,349 mg/mL,4.5 mg/mL,
>2000 mg/mL,1000 mg/mL,>2000 mg/mL,>2000 mg/mL,<1.2 mg/mL,1000 mg/mL,<1.2 mg/mL,,"O-Pentafluorophenyl-N,N,N′,N′-tetramethyluronium tris(pentafluoroethyl)trifluorophosphate [PfTU-FAP]",,,,,,,,
>800 mg/mL,>1040 mg/mL,>700 mg/mL,>1100 mg/mL,<1.2 mg/mL,>1200 mg/mL,<1.2 mg/mL,,(Benzotriazol-1-yloxy)tris(dimethylamino)phosphonium tris(pentafluoroethyl)trifluorophosphate [BOP-FAP],,,,,,,,
